Assay results from patent publication US20140128472A1, “TREATMENT AND PREVENTION OF DISEASES RELATED TO OXIDATIVE STRESS” (UNIVERSITY OF PÉCS, priority 2011, published 2014).
Entries after “also recorded” stand apart in the source; their conditions may differ.

What was measured:
3T3-L1 adipocytes [1] = assay: Insulin-dependent uptake of deoxy-D-glucose 2-[1 2-3H(N)] into 3T3-L1 adipocytes; assay type: cell-based, mouse
Procedure: (§1) Primary cultures of mouse embryo fibroblasts (3T3-L1) were purchased from ATCC (Manassas, US). Early passages of 3T3-L1 fibroblasts were cultured in Dulbecco's modified Eagle medium ((DMEM, Invitrogen, CAT number: 41966-029; Sigma Aldrich CAT number: D6046) supplemented with 10% Fetal Bovine Serum (Gibco, CAT number: 16170-078), 100 U/ml penicillin and 0.1 mg/ml streptomycin (Gibco, CAT number: 15070-063) and 398 nM p-, m-, or o-Tyr. DMEM contained 25 or 5 mM glucose (depending on the experiment), L-glutamine, and pyruvate. Cells were grown in a humidified incubator at 37° C. and 5% CO2. Differentiation medium consisted of DMEM supplemented with 10% Fetal Bovine Serum (FBS, Gibco, Csertex, Budapest, Hungary, CAT number: 10106-169) (FBS), to which a cocktail was added containing […] isobuthylmethylxanthine (Sigma Aldrich, CAT number: I 5879), 0.17 nM insulin (Sigma Aldrich, CAT number: I 9278) and 250 nM dexamethasone (Sigma Aldrich, CAT number: 861871). From Day 4 onward, cells were maintained in DMEM/10% FBS containing 1.5 pg/ml insulin with a media change every other day until experimental treatments were initiated. For all treatments, cells were incubated overnight in serum-deprived medium after 90% of the cell population reached the adipocyte phenotype.
Cells were incubated in glucose free DMEM (Gibco, Csertex, Hungary) for 30 minutes, then treated with 2, 20, 200 or 400 nmol/l insulin for 100 minutes. Simultaneously 1 μCi/ml deoxy-D-glucose 2-[1 2-3H(N)] (3.7×104 Bq/ml) (Izotóp Intézet, Hungary) was added to the plates for 100 minutes Cells were scraped into the medium and centrifuged for 5 minutes at 1000 rpm. The sediment was dissolved in 70 μl of lysis-buffer and glucose uptake was assessed by scintillation counting measuring 30 μl of the sample with a Beckman LS 5000 TD counter in counts per minute (CPM) for five minutes each, using an average activity as the outcome. Samples were frozen overnight at −70° C. and protein concentration was measured using a Hitachi spectrophotometer. Results were normalized for protein content (Kaddai2009).

Akt (protein kinase B) = assay: Insulin-induced phosphorylation of Akt in 3T3-L1 adipocytes (Western blot); assay type: cell-based, mouse
Procedure: as §1
Following the treatment cells were washed twice with Saline (4° C.) to remove any trace of the medium, then exposed to 80 μL lysis buffer/plate, containing 1.15% Triton X, 1M Trisbase, pH 7.4, 0.5 M EDTA, pH 8, 0.2 M EGTA, pH 7, 0.1 M dithiothreitol (DTT), 5 mg/ml phenylmethylsulfonyl fluoride (PMSF), 0.1 M Na3VO4, 5 mg/ml leupeptin, 5 mg/ml aprotinin, Phoshatase Inhibitor Coctail 1 and 2 (Sigma Aldrich, CAT number: P2850 and P5726). Adypocytes were scraped off mechanically and then frozen at −70° C.
The samples of EC lysates were sonicated (2 min) and centrifuged (10 min, 13,000 rpm, at 4° C.). Protein content of samples was determined by the Bradford method using bovine serum albumin as a standard Bio-Rad Benchmark Plus. Samples were solubilized in a buffer of 100 mM Tris-HCl (pH 6.8), 4.0% sodium dodecyl sulphate (SDS), 20% glycerol, 200 mM DTT, and 0.2% bromophenol blue. […]
Membranes were incubated overnight with the immunoglobulin G (IgG) monoclonal antibodies diluted to 1:1000 in TBS-T (0.1%), containing 5% bovine serum (BS). […] Blots were detected using enhanced chemiluminescence (ECL; Pierce Biotech, Bio-Rad, Budapest, Hungary). Computerized densitometry (integrated optical density) of the specific bands was analyzed with Scion Image for Windows Software. […]

3T3-L1 adipocytes [2] = assay: Erythropoietin-dependent uptake of deoxy-D-glucose into 3T3-L1 adipocytes; assay type: cell-based, mouse; settings: 5 mM glucose; various concentrations of EPO
Procedure: as §1, with “From Day 4 onward, cells were maintained in DMEM/10% FBS containing 1.5 pg/ml insulin with a media change every other day until experimental treatments were initiated. For all treatments, cells were incubated overnight in serum-deprived medium after 90% of the cell population reached the adipocyte phenotype.” left out
[…] The sediment was dissolved in 70 μl of lysis-buffer and glucose uptake was assessed by scintillation counting measuring 30 μl of the sample with a Beckman LS 5000 TD counter in counts per minute (CPM) for five minutes each, using an average activity as the outcome. Samples were frozen overnight at −70° C. and protein concentration was measured using a Hitachi spectrophotometer. […]

Akt (PKB) = assay: Erythropoietin-dependent phosphorylation of Akt (PKB) in 3T3-L1 adipocytes (Western blot); assay type: cell-based, mouse; settings: 25 mM glucose; various concentrations of erythropoietin
[3] = Example p-Tyr treatment regimen in a patient (hsCRP, serum insulin, plasma glucose); assay type: in vivo, human
Procedure: As a further example, a patient attends medical control with a complaint of high blood pressure and increased stress at regular daily work in the last month. In this situation they relate an increased intake of coffein and sugar. Their high sensitivity C-reactive protein (hsCRP) level is measured as well as their serum insulin, and plasma glucose level.

[4] = test system: thoracic and abdominal aorta, renal and femoral arteries; assay: Insulin-induced relaxation of isolated arterial segments after oral tyrosine isomer supplementation of rats; set-up: species or system Sprague-Dawley rats; settings: proposed experiment: sustained in vivo supplementation with o-Tyr and p-Tyr together
[5] = cells grown 11 days on medium with the tyrosine isomer + 5 mM glucose, insulin 2, 20, 200, 400 nM

Compound | Insulin-induced glucose uptake at equimolar concentrations with p-Tyr (3T3-L1 adipocytes [1]; 72-72 mg/l m-Tyr or o-Tyr and p-Tyr, insulin 400 nM) | Insulin-dependent deoxy-D-glucose uptake (3T3-L1 adipocytes [1]; [5]) | Baseline glucose uptake (3T3-L1 adipocytes [1]; cells grown on m-Tyr- or o-Tyr-containing medium (72 mg/l) for different time periods, no insulin) | Insulin-induced glucose uptake, time dependence (3T3-L1 adipocytes [1]; m-Tyr or o-Tyr 72 mg/l for different time periods, insulin 400 nM, time-dependent manner) | Ability to inhibit insulin-induced glucose uptake, dependence on concentration (3T3-L1 adipocytes [1]; m-Tyr or o-Tyr 2.25-72 mg/l with p-Tyr 72 mg/l, insulin 400 nM) | Insulin-induced Akt phosphorylation (Akt (protein kinase B); cells grown on m-Tyr or o-Tyr, insulin 200 and 400 nmol/l) | EPO-induced glucose uptake compared to the para-Tyr control (3T3-L1 adipocytes [2]) | EPO-dependent Akt phosphorylation (Akt (PKB)) | Insulin-dependent deoxy-D-glucose uptake (3T3-L1 adipocytes [1]; cells grown 11 days on p-Tyr + high glucose (25 mM)) | Increase in glucose uptake by insulin (3T3-L1 adipocytes [1]; cells grown on p-Tyr and normal glucose, insulin 400 nM) | Excess concentration of p-Tyr over m-Tyr or o-Tyr in the media needed to compete (3T3-L1 adipocytes [1]; read from FIG. 3, insulin 400 nM) | Insulin-induced Akt phosphorylation (Akt (protein kinase B); cells grown on high glucose media with p-Tyr only) | Increase in Akt (protein kinase B) phosphorylation by insulin compared to controls (Akt (protein kinase B); cells grown on p-Tyr and low glucose, increasing doses of insulin) [fold] | hsCRP, serum insulin and plasma glucose level ([3]; p-Tyr 3 g daily (three times 1 g), after a month) | hsCRP, serum insulin and plasma glucose level ([3]; p-Tyr therapy continued, after a further month) | Diminished response to insulin in isolated arterial segments [4]
N[C@@H](Cc1ccccc1O)C(=O)O [o-Tyr, Ortho-L-tyrosine] | fully inhibit insulin-induced glucose uptake; also recorded: insulin had no effect on glucose uptake at all | no insulin effect could be verified | did not show a marked change | blocked | concentration-dependent | inhibited the insulin-induced Akt-phosphorylation; also recorded: could not be significantly enhanced by insulin | inhibited | inhibited the normal increase in the Akt phosphorylation |  |  |  |  |  |  |  | 
N[C@@H](Cc1ccc(O)cc1)C(=O)O [p-Tyr, Para-L-tyrosine] |  | increasing concentrations of insulin lead to an increase in deoxy-D-glucose uptake |  |  |  |  |  |  | insulin failed to increase glucose uptake | approx. 2 fold | 8-32 fold | significantly lower Akt-phosphorylation | 3 | somewhat diminished | returned to the medium normal range | reversed
